Measured values: patent US20180319810A1, “SUBSTITUTED BRIDGED UREA ANALOGS AS SIRTUIN MODULATORS” (GlaxoSmithKline Intellectual Property (No.2) Limited, priority 2014, published 2018)

Molecular target: T1, SIRT1 (Homo sapiens, UniProt Q96EB6)
T1 sequence (Q96EB6 1-747): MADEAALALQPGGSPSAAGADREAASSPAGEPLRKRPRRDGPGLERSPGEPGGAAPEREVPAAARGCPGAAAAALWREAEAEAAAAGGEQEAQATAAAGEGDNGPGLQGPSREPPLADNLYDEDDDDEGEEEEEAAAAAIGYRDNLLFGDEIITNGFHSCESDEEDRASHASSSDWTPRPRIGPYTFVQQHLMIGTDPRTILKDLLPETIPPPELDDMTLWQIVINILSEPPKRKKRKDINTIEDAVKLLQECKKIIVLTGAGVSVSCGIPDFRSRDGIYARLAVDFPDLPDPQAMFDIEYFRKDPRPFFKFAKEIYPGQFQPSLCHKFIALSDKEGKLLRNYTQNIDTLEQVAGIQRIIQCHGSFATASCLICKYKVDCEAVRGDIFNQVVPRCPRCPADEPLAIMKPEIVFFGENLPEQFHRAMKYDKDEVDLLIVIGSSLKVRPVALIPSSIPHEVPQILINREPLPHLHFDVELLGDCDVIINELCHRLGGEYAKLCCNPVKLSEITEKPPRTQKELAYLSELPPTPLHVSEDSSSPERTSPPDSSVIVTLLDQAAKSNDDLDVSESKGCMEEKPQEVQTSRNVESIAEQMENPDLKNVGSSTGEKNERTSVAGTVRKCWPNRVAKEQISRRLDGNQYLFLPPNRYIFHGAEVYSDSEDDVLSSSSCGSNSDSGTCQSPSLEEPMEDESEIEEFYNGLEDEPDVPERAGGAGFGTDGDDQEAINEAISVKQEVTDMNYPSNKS
Assay: Trp mass spectrometry assay of SIRT1 activation
Type: biochemical
Conditions: Trp peptide Ac-R-H-K-K(Ac)-W-NH2 0.5 μM, 120 μM βNAD+, 10 nM SIRT1, 25 min, 25° C.
Excerpt: Mass spectrometry based assays were used to identify modulators of SIRT1 activity. […] The peptide was labeled with the fluorophore 5TMR (excitation 540 nm/emission 580 nm) at the C-terminus. The sequence of the peptide substrate was based on p53 with several modifications. In addition, the methionine residue naturally present in the sequence was replaced with the norleucine because the methionine may be susceptible to oxidation during synthesis and purification.
The Trp mass spectrometry assay was conducted as follows. […] The SIRT1 protein was obtained by cloning the SirT1 gene into a T7-promoter containing vector, which was then expressed in BL21(DE3) bacterial cells and purified as described in further detail below. Test compound was added at varying concentrations to this reaction mixture and the resulting reactions were monitored. After the 25 minute incubation with SIRT1, 10 μL of 10% formic acid was added to stop the reaction. The resulting reactions were sealed and frozen for later mass spec analysis. The relative SIRT1 activity was then determined by measuring the amount of O-acetyl-ADP-ribose (OAADPR) formed (or, alternatively, the amount of deacetylated Trp peptide generated) by the NAD-dependent sirtuin deacetylation reaction in the presence of varying concentrations of the test compound versus control reactions lacking the test compound.
The degree to which the test agent activated deacetylation by SIRT1 was expressed as EC1.5 (i.e., the concentration of compound required to increase SIRT1 activity by 50% over the control lacking test compound), and Percent Maximum Activation (i.e., the maximum activity relative to control (100%) obtained for the test compound).
This time point was the same as that used for test compounds and, within the linear range, the endpoint represents a change in velocity.
For the above assay, SIRT1 protein was expressed and purified as follows. The SirT1 gene was cloned into a T7-promoter containing vector and transformed into BL21(DE3). The protein was expressed by induction with 1 mM IPTG as an N-terminal His-tag fusion protein at 18° C. overnight and harvested at 30,000×g. Cells were lysed with lysozyme in lysis buffer (50 mM Tris-HCl, 2 mM Tris[2-carboxyethyl]phosphine (TCEP), 10 μM ZnCl2, 200 mM NaCl) and further treated with sonication for 10 min for complete lysis. The protein was purified over a Ni-NTA column (Amersham) and fractions containing pure protein were pooled, concentrated and run over a sizing column (Sephadex S200 26/60 global). The peak containing soluble protein was collected and run on an Ion-exchange column (MonoQ). Gradient elution (200 mM-500 mM NaCl) yielded pure protein. This protein was concentrated and dialyzed against dialysis buffer (20 mM Tris-HCl, 2 mM TCEP) overnight. The protein was aliquoted and frozen at −80° C. until further use.
“NT” means not tested; “ND” means not determinable.

| TRP Activity (EC1.5, concentration of compound required to increase SIRT1 activity by 50% over control) | TRP MAX RESP (percent maximum fold activation relative to control) | Structure (SMILES) |
| --- | --- | --- |
| A (EC1.5<1 μM) | A (Fold activation ≥150%) | O=C(Nc1cncc(OC[C@H](O)CO)n1)N1c2nc(-c3cccc(C(F)(F)F)c3)ncc2N2CCC[C@H]1C2 [Example 95, (9S)—N-(6-((R)-2,3-dihydroxypropoxy)pyrazin-2-yl)-2-(3-(trifluoromethyl)phenyl)-8,9-dihydro-6H-5,9-methanopyrimido[4,5-b][1,4]diazocine-10(7H)-carboxamide] |
| A (EC1.5<1 μM) | A (Fold activation ≥150%) | O=C(Nc1cnc(OC[C@@H](O)CO)cn1)N1c2nc(-c3cccc(C(F)(F)F)c3)ncc2N2CCC[C@H]1C2 [Example 83, (9S)—N-(5-((S)-2,3-dihydroxypropoxy)pyrazin-2-yl)-2-(3-(trifluoromethyl)phenyl)-8,9-dihydro-6H-5,9-methanopyrimido[4,5-b][1,4]diazocine-10(7H)-carboxamide] |
| A (EC1.5<1 μM) | A (Fold activation ≥150%) | O=C(Nc1cnnc(OC[C@@H](O)CO)c1)N1c2nc(-c3cccc(C(F)(F)F)c3)ncc2N2CCC[C@H]1C2 [Example 108, (9S)—N-(6-((S)-2,3-dihydroxypropoxy)pyridazin-4-yl)-2-(3-(trifluoromethyl)phenyl)-8,9-dihydro-6H-5,9-methanopyrimido[4,5-b][1,4]diazocine-10(7H)-carboxamide] |
| A (EC1.5<1 μM) | A (Fold activation ≥150%) | O=C(Nc1cccc(OC[C@H](O)CO)n1)N1c2nc(-c3cccc(C(F)(F)F)c3)ncc2N2CCC[C@H]1C2 [Example 89, (9S)—N-(6-((R)-2,3-dihydroxypropoxy)pyridin-2-yl)-2-(3-(trifluoromethyl)phenyl)-8,9-dihydro-6H-5,9-methanopyrimido[4,5-b][1,4]diazocine-10(7H)-carboxamide] |
| A (EC1.5<1 μM) | A (Fold activation ≥150%) | O=C(Nc1ccc(OC[C@@H](O)CO)nc1)N1c2nc(-c3cccc(C(F)(F)F)c3)ncc2N2CC[C@H]1C2 [Example 38, (8S)—N-(6-((S)-2,3-dihydroxypropoxy)pyridin-3-yl)-2-(3-(trifluoromethyl)phenyl)-7,8-dihydro-5,8-methanopyrimido[4,5-b][1,4]diazepine-9(6H)-carboxamide] |
| B (EC1.5 1-25 μM) | A (Fold activation ≥150%) | O=C(Nc1cnnc(OC[C@H](O)CO)c1)N1c2nc(-c3cccc(C(F)(F)F)c3)ncc2N2CC[C@H]1C2 [Example 44, (8S)—N-(6-((R)-2,3-dihydroxypropoxy)pyridazin-4-yl)-2-(3-(trifluoromethyl)phenyl)-7,8-dihydro-5,8-methanopyrimido[4,5-b][1,4]diazepine-9(6H)-carboxamide] |

Second part, the compound before the results:

| Structure (SMILES) | TRP Activity (EC1.5, concentration of compound required to increase SIRT1 activity by 50% over control) | TRP MAX RESP (percent maximum fold activation relative to control) |
| --- | --- | --- |
| Cc1ccc(-c2nc(C)c3c(n2)N(C(=O)Nc2ccccn2)[C@H]2CCN3C2)cn1 [Example 12, (8S)-4-methyl-2-(6-methylpyridin-3-yl)-N-(pyridin-2-yl)-7,8-dihydro-5,8-methanopyrimido[4,5-b][1,4]diazepine-9(6H)-carboxamide] | B (EC1.5 1-25 μM) | A (Fold activation ≥150%) |
| O=C(Nc1cncc(OC[C@H](O)CO)n1)N1c2nc(-c3cccc(C(F)(F)F)c3)ncc2N2CC[C@H]1C2 [Example 37, (8S)—N-(6-((R)-2,3-dihydroxypropoxy)pyrazin-2-yl)-2-(3-(trifluoromethyl)phenyl)-7,8-dihydro-5,8-methanopyrimido[4,5-b][1,4]diazepine-9(6H)-carboxamide] | B (EC1.5 1-25 μM) | A (Fold activation ≥150%) |
| C[C@@H](NC(=O)c1ncc2c(n1)N(C(=O)Nc1cc(OC[C@@H](O)CO)ncn1)[C@H]1CCCN2C1)C(F)(F)F [Example 75, (9S)—N10-(6-((S)-2,3-dihydroxypropoxy)pyrimidin-4-yl)-N2-((R)-1,1,1-trifluoropropan-2-yl)-8,9-dihydro-6H-5,9-methanopyrimido[4,5-b][1,4]diazocine-2,10(7H)-dicarboxamide] | B (EC1.5 1-25 μM) | A (Fold activation ≥150%) |
| C[C@@H](NC(=O)c1ncc2c(n1)N(C(=O)Nc1cccc(OC[C@@H](O)CO)n1)[C@H]1CCCN2C1)C(F)(F)F [Example 117, (9S)—N10-(6-((S)-2,3-dihydroxypropoxy)pyridin-2-yl)-N2-((R)-1,1,1-trifluoropropan-2-yl)-8,9-dihydro-6H-5,9-methanopyrimido[4,5-b][1,4]diazocine-2,10(7H)-dicarboxamide] | B (EC1.5 1-25 μM) | A (Fold activation ≥150%) |
| O=C(Nc1cc(OC[C@H](O)CO)ncn1)N1c2nc(-c3cccc(C(F)(F)F)c3)ncc2N2CC[C@H]1C2 [Example 16, (8S)—N-(6-((R)-2,3-dihydroxypropoxy)pyrimidin-4-yl)-2-(3-(trifluoromethyl)phenyl)-7,8-dihydro-5,8-methanopyrimido[4,5-b][1,4]diazepine-9(6H)-carboxamide] | B (EC1.5 1-25 μM) | A (Fold activation ≥150%) |
| O=C(NC1CC1)c1ncc2c(n1)N(C(=O)Nc1ccccn1)[C@H]1CCCN2C1 [Example 116, (9S)—N2-cyclopropyl-N10-(pyridin-2-yl)-8,9-dihydro-6H-5,9-methanopyrimido[4,5-b][1,4]diazocine-2,10(7H)-dicarboxamide] | C (EC1.5>25 μM) | A (Fold activation ≥150%) |
| C[C@@H](NC(=O)c1ncc2c(n1)N(C(=O)Nc1cc(OC[C@H](O)CO)ccn1)[C@H]1CCCN2C1)C(F)(F)F [Example 64, (9S)—N10-(4-((R)-2,3-dihydroxypropoxy)pyridin-2-yl)-N2-((R)-1,1,1-trifluoropropan-2-yl)-8,9-dihydro-6H-5,9-methanopyrimido[4,5-b][1,4]diazocine-2,10(7H)-dicarboxamide] | A (EC1.5<1 μM) | A (Fold activation ≥150%) |
| C[C@@H](NC(=O)c1ncc2c(n1)N(C(=O)Nc1cnc(OC[C@H](O)CO)cn1)[C@H]1CCCN2C1)C(F)(F)F [Example 69] | B (EC1.5 1-25 μM) | A (Fold activation ≥150%) |
